Data reported in patent US10294236B2, “Compounds as rearranged during transfection (RET) inhibitors” (GLAXOSMITHKLINE INTELLECTUAL PROPERTY DEVELOPMENT LIMITED, priority 2014, dated 2019).
pIC50: −log10 of the molar value. Counter-ions that a name gives are not always drawn.

biological target: T1, Human RET kinase cytoplasmic domain (Homo sapiens, UniProt P07949); assay: RET kinase enzymatic assay; assay type: biochemical
T1 construct: made in house
T1 sequence (P07949 658-1114): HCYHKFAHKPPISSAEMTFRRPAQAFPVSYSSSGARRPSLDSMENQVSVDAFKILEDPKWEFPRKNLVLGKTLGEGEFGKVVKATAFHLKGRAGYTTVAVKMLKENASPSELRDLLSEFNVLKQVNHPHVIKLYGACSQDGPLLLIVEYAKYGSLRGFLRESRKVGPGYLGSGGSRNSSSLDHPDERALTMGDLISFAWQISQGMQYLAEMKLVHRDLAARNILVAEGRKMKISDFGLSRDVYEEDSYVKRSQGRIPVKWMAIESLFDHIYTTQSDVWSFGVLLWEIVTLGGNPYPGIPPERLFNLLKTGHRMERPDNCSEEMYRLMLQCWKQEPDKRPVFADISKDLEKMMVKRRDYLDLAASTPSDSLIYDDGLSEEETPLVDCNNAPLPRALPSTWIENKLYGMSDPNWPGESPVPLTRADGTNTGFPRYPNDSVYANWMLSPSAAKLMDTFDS
Method: GST-RET was purified using glutathione sepharose chromatography. The RET kinase enzymatic assay was performed in a total volume of 10 uL with increasing concentrations of RET kinase inhibitor as a singlet in a 384 well format as follows: RET inhibitor compound plates are prepared by adding 100 nL of RET inhibitor at different concentrations to a 384-well plate. 5 μL/well of a 2× enzyme mix (50 mM HEPES (4-(2-hydroxyethyl)-1-piperazineethanesulfonic acid); 1 mM CHAPS (3-[(3-cholamidopropyl)dimethylammonio]-1-propanesulfonate); 0.1 mg/mL BSA (bovine serum albumin); 1 mM DTT (dithiothreitol); 0.2 nM RET kinase) was added to the 384-well plate and incubated for 30 minutes at 23° C. 5 µL/well of a 2× substrate mix (50 mM HEPES; 1 mM CHAPS; 0.1 mg/mL BSA; 20 μM adenosine triphosphate; 20 mM MgCl2 and 1 μM biotinylated peptide substrate) was added and incubated for 1 hour at 23° C. […] IC50s were fitted using GraphPad Prism to a sigmoidal dose response.

Row | pIC50 | SMILES
1 | > 7.00 | CCOc1cc(-c2ccc(NC(=O)Nc3ccc(OC4(C)COC4)c(C(F)F)c3)c(F)c2)c[nH]c1=O [Example 93]
2 | > 7.00 | CC1(Oc2ccc(NC(=O)Nc3ccc(-c4c[nH]c(=O)cc4F)cc3F)cc2C(F)(F)F)COC1 [Example 37, 1-(2-Fluoro-4-(4-fluoro-6-oxo-1,6-dihydropyridin-3-yl)phenyl)-3-(4-((3-methyloxetan-3-yl)oxy)-3-(trifluoromethyl)phenyl)urea]
3 | > 7.00 | CC1(Oc2ccc(NC(=O)Nc3ccc(-c4c[nH]c(=O)c5c4OCC5)cc3F)cc2C(F)(F)F)COC1 [Example 22, 1-(2-Fluoro-4-(4-oxo-2,3,4,5-tetrahydrofuro[3,2-c]pyridin-7-yl)phenyl)-3-(4-((3-methyloxetan-3-yl)oxy)-3-(trifluoromethyl)phenyl)urea]
4 | > 7.00 | CCOc1cc(-c2cnc(NC(=O)Nc3ccc(OC4(C)COC4)c(C(F)(F)F)c3)c(F)c2)c[nH]c1=O [Example 103]
5 | > 7.00 | CCOc1cc(Oc2ccc(NC(=O)Nc3ccc(OC4(C)COC4)c(C(F)(F)F)c3)cc2)c[nH]c1=O [Example 49, 1-(4-((5-Ethoxy-6-oxo-1,6-dihydropyridin-3-yl)oxy)phenyl)-3-(4-((3-methyloxetan-3-yl)oxy)-3-(trifluoromethyl)phenyl)urea]
6 | > 7.00 | CCOc1cc(-c2ccc(NC(=O)Nc3ccc(CN4CCOCC4)c(C(F)(F)F)c3)c(F)c2)c[nH]c1=O [Example 45, 1-(4-(5-Ethoxy-6-oxo-1,6-dihydropyridin-3-yl)-2-fluorophenyl)-3-(4-(morpholinomethyl)-3-(trifluoromethyl)phenyl)urea]
7 | > 7.00 | CC1(Oc2ccc(NC(=O)Nc3ccc(-c4ccc(=O)[nH]c4)cc3F)cc2C(F)(F)F)COC1 [Example 147]
8 | > 7.00 | CCOc1cc(-c2ncc(NC(=O)Nc3ccc(Cl)c(C(F)(F)F)c3)c(C)n2)c[nH]c1=O [Example 60, 1-(4-Chloro-3-(trifluoromethyl)phenyl)-3-(2-(5-ethoxy-6-oxo-1,6-dihydropyridin-3-yl)-4-methylpyrimidin-5-yl)urea]
9 | > 7.00 | CCOc1cc(-c2ccc(NC(=O)Nc3ccc(OC4(C)CC(O)C4)c(C(F)(F)F)c3)c(F)c2)c[nH]c1=O (stereo not shown) [Example 84]
10 | > 7.00 | CCOc1cc(-c2ccc(NC(=O)Nc3ccc(C(C)(C)C#N)c(C(F)(F)F)c3)c(F)c2)c[nH]c1=O [Example 135]
11 | > 7.00 | CCOc1cc(-c2ccc(NC(=O)Nc3ccc(OC4(C)COC4)c(C(F)(F)F)c3)c(F)c2F)c[nH]c1=O [Example 119]
12 | > 7.00 | CCOc1cc(-c2ncc(NC(=O)Nc3ccc(CC4(C)COC4)c(C(F)(F)F)c3)c(C)n2)c[nH]c1=O [Example 13, 1-(2-(5-Ethoxy-6-oxo-1,6-dihydropyridin-3-yl)-4-methylpyrimidin-5-yl)-3-(4-((3-methyloxetan-3-yl)methyl)-3-(trifluoromethyl)phenyl)urea]
13 | > 7.00 | CCOc1cc(=O)[nH]cc1-c1ccc(NC(=O)Nc2ccc(OC3(C)COC3)c(C(F)F)c2)c(F)c1 [Example 124]
14 | > 7.00 | CCOCc1ccc(NC(=O)Nc2ccc(-c3c[nH]c(=O)c(OCC)c3)cc2F)cc1C(F)(F)F [Example 151]
15 | > 7.00 | CCOc1cc(Oc2ccc(NC(=O)Nc3cc(C(F)(F)F)ccc3F)cc2)c[nH]c1=O [Example 86]
16 | > 7.00 | CCOc1cc(-c2ccc(NC(=O)Nc3ccc(OC4(C)CCN(C)C4)c(C(F)(F)F)c3)c(F)c2)c[nH]c1=O (stereo not shown) [Example 144]
17 | > 7.00 | CCOc1cc(-c2cnc(NC(=O)Nc3ccc(OC4(C)COC4)c(C(F)(F)F)c3)c(C)c2)c[nH]c1=O [Example 105]

Continued, compound first:

Row | SMILES | pIC50
18 | CCOc1cc(-c2ncc(NC(=O)Nc3ccc(CN4CCCC4)c(C(F)(F)F)c3)c(C)n2)c[nH]c1=O [Example 111] | 6.30 to 7.00
19 | CCOc1cc(-c2cnc(NC(=O)Nc3cc(C(C)(C)C(F)(F)F)on3)c(C)n2)c[nH]c1=O [Example 16, 1-(5-(5-Ethoxy-6-oxo-1,6-dihydropyridin-3-yl)-3-methylpyrazin-2-yl)-3-(5-(1,1,1-trifluoro-2-methylpropan-2-yl)isoxazol-3-yl)urea] | > 7.00
20 | CCOc1cc(-c2ncc(NC(=O)Nc3cc(C(F)(F)F)cc(S(=O)(=O)NCCN(C)C)c3)c(C)n2)c[nH]c1=O [Example 174, N-(2-(dimethylamino)ethyl)-3-(3-(2-(5-ethoxy-6-oxo-1,6-dihydropyridin-3-yl)-4-methylpyrimidin-5-yl)ureido)-5-(trifluoromethyl)benzenesulfonamide] | > 7.00
21 | CCOc1cc(-c2ncc(NC(=O)Nc3ccc(CC(C)(C)N)c(C(F)(F)F)c3)c(C)n2)c[nH]c1=O [Example 185, 1-(4-(2-Amino-2-methylpropyl)-3-(trifluoromethyl)phenyl)-3-(2-(5-ethoxy-6-oxo-1,6-dihydropyridin-3-yl)-4-methylpyrimidin-5-yl)urea] | > 7.00
22 | CCOc1cc(-c2ncc(NC(=O)Nc3cc(C(=O)NCCN(C)C)cc(C(F)(F)F)c3)cn2)c[nH]c1=O [Example 189, N-(2-(Dimethylamino)ethyl)-3-(3-(2-(5-ethoxy-6-oxo-1,6-dihydropyridin-3-yl)-pyrimidin-5-yl)ureido)-5-(trifluoromethyl)benzamide] | > 7.00
23 | CCOc1cc(-c2ncc(NC(=O)Nc3cc(C(F)(F)F)c(CN4CCN(CC)CC4)cc3F)c(C)n2)c[nH]c1=O [Example 32, 1-(2-(5-Ethoxy-6-oxo-1,6-dihydropyridin-3-yl)-4-methylpyrimidin-5-yl)-3-(4-((4-ethylpiperazin-1-yl)methyl)-2-fluoro-5-(trifluoromethyl)phenyl)urea] | > 7.00
24 | CCOc1cc(-c2ncc(NC(=O)Nc3cnc(C(C)(C)O)c(C(F)(F)F)c3)c(C)n2)c[nH]c1=O [Example 29, 1-(2-(5-Ethoxy-6-oxo-1,6-dihydropyridin-3-yl)-4-methylpyrimidin-5-yl)-3-(6-(2-hydroxypropan-2-yl)-5-(trifluoromethyl)pyridin-3-yl)urea] | > 7.00
25 | CCOc1cc(-c2ncc(NC(=O)Nc3cc(OCCN(C)C)cc(C(F)(F)F)c3)cn2)c[nH]c1=O [Example 178, 1-(3-(2-(dimethylamino)ethoxy)-5-(trifluoromethyl)phenyl)-3-(2-(5-ethoxy-6-oxo-1,6-dihydropyridin-3-yl)pyrimidin-5-yl)urea dihydrochloride] | > 7.00
26 | CCOc1cc(-c2ncc(NC(=O)Nc3ccc(C(C)(C)C#N)c(C(F)(F)F)c3)c(C)n2)c[nH]c1=O [Example 23, 1-(4-(2-Cyanopropan-2-yl)-3-(trifluoromethyl)phenyl)-3-(2-(5-ethoxy-6-oxo-1,6-dihydropyridin-3-yl)-4-methylpyrimidin-5-yl)urea] | > 7.00
27 | CCOc1cc(-c2nc(C)c(NC(=O)Nc3cc(-n4cnc(C)c4)cc(C(F)(F)F)c3)c(C)n2)c[nH]c1=O [Example 53, 1-(2-(5-Ethoxy-6-oxo-1,6-dihydropyridin-3-yl)-4,6-dimethylpyrimidin-5-yl)-3-(3-(4-methyl-1H-imidazol-1-yl)-5-(trifluoromethyl)phenyl)urea] | > 7.00
28 | CCOc1cc(-c2ncc(NC(=O)Nc3ccc(C(C)(C)CN)c(C(F)(F)F)c3)c(C)n2)c[nH]c1=O [Example 70, 1-(4-(1-Amino-2-methylpropan-2-yl)-3-(trifluoromethyl)phenyl)-3-(2-(5-ethoxy-6-oxo-1,6-dihydropyridin-3-yl)-4-methylpyrimidin-5-yl)urea dihydrochloride] | > 7.00
